Data published in patent US20260041683A1, “Compounds with Anti-Acinetobacter Baumannii Activity” (University of Kentucky Research Foundation, priority 2022, published 2026).
≈ marks a conversion by molar mass, not a printed value. Read-outs that look alike come from different tables or passages of the source.

What was measured:
Ab ATCC 19606 (strain I) = experiment: MIC determination (double dilution, Mueller-Hinton broth); format: cell-based, Acinetobacter baumannii; details: for MIC: Acinetobacter baumannii, ATCC19606
[1] = system: Ab ATCC BAA1605 (strain J, multidrug-resistant); experiment: MIC determination; format: cell-based; details: Acinetobacter baumannii
Procedure, shortened: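 Broth double-dilution MIC in Mueller-Hinton broth, 96-well plates, at least in duplicate. Inoculum: colonies grown overnight at 37 °C on MH plates, suspended to OD600 ~0.5 and diluted 1:1000 into serially doubly diluted compound.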

[2] = system: Ab strain #273 (CDC and FDA AR Bank); experiment: MIC determination; format: cell-based; details: Acinetobacter baumannii; Ab AR Bank #273
Protocol: (§1) All bacterial strains listed above were stored at −80° C. All strains were streaked on Mueller-Hinton (MH) plates and allowed to grow at 37° C. overnight. Enough colonies were scraped from the plate and suspended in MH broth with vortexing to reach an attenuance at 600 nm (OD600) of ˜0.5. The resulting culture was diluted 1:1000 and added to the prepared serially doubly diluted compound solutions in 96-well plates. For M. smegmatis, a 1:100 dilution of the bacteria was done in MH. All MIC values were determined using 96-well plates with low evaporation seals at least in duplicate. For each row, one well was reserved for sterile control (which consisted of 200 μL of MH medium) and another well was reserved for growth control (which consisted of 100 μL of MH medium seeded with 100 μL of bacterial culture).
(§2) Then all 46 compounds were tested against a broad panel of all 41 Ab strains from the CDC and FDA Antibiotic Resistance (AR) Isolate Bank (Table 2; data shown for 2 representative compounds), which were all highly multidrug-resistant strains, including those resistant to colistin. […] The activity of the monohydrazides was not dependent on the extent (number of resistance mutations) or severity (antibiotic MIC) of resistance. All conclusions made from Table 1 remained valid for all compounds against these 41 additional Ab strains. […] This mechanism of action will be elucidated in the proposed studies.

[3] = system: Ab strain #277 (CDC and FDA AR Bank); experiment: MIC determination; format: cell-based; details: Acinetobacter baumannii; Ab AR Bank #277
Protocol: as §1, §2

[4] = system: Ab strain #283 (CDC and FDA AR Bank); experiment: MIC determination; format: cell-based; details: Acinetobacter baumannii; Ab AR Bank #283
Protocol: as §1, §2

[5] = system: Ab strain #284 (CDC and FDA AR Bank); experiment: MIC determination; format: cell-based; details: Acinetobacter baumannii; Ab AR Bank #284
Protocol: as §1, §2

[6] = system: Ab strain #285 (CDC and FDA AR Bank); experiment: MIC determination; format: cell-based; details: Acinetobacter baumannii; Ab AR Bank #285
Protocol: as §1, §2

[7] = system: Ab strain #287 (CDC and FDA AR Bank); experiment: MIC determination; format: cell-based; details: Acinetobacter baumannii; Ab AR Bank #287
Protocol: as §1, §2

[8] = system: Ab strain #290 (CDC and FDA AR Bank); experiment: MIC determination; format: cell-based; details: Acinetobacter baumannii; Ab AR Bank #290
Protocol: as §1, §2

[9] = system: Ab strain #295 (CDC and FDA AR Bank); experiment: MIC determination; format: cell-based; details: Acinetobacter baumannii; Ab AR Bank #295
Protocol: as §1, §2

[10] = system: Ab strain #296 (CDC and FDA AR Bank); experiment: MIC determination; format: cell-based; details: Acinetobacter baumannii; Ab AR Bank #296
Protocol: as §1, §2

[11] = system: Ab strain #300 (CDC and FDA AR Bank); experiment: MIC determination; format: cell-based; details: Acinetobacter baumannii; Ab AR Bank #300
Protocol: as §1, §2

[12] = system: Ab strain #303 (CDC and FDA AR Bank); experiment: MIC determination; format: cell-based; details: Acinetobacter baumannii; Ab AR Bank #303
Protocol: as §1, §2

[13] = system: Ab strain #307 (CDC and FDA AR Bank); experiment: MIC determination; format: cell-based; details: Acinetobacter baumannii; Ab AR Bank #307
Protocol: as §1, §2

[14] = system: Ab strain #308 (CDC and FDA AR Bank); experiment: MIC determination; format: cell-based; details: Acinetobacter baumannii; Ab AR Bank #308
Protocol: as §1, §2

[15] = system: Ab strain #312 (CDC and FDA AR Bank); experiment: MIC determination; format: cell-based; details: Acinetobacter baumannii; Ab AR Bank #312
Protocol: as §1, §2

[16] = system: all 43 strains of A. baumannii (41 CDC strains and 2 ATCC strains); experiment: MIC value statistics for all A. baumannii strains; format: cell-based, Acinetobacter baumannii; details: of 43 A. baumannii strains
Procedure, shortened: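 Broth microdilution in MH broth against CDC AR Isolate Bank and ATCC strains. Inoculum from overnight MH plates (37 °C), suspended to OD600 ~0.5, then diluted 1:1000 into serial twofold compound dilutions. Sterile and growth controls included per row.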

[17] = Table 1, control strain, read-out: MIC Ab ATCC 19606
[18] = Table 1, multidrug-resistant strain, read-out: MIC Ab ATCC BAA 1605

Which results are given for `O=C(NNc1ccc(Cl)cc1)c1ccc(F)cn1` [Compound 3e]?
MIC (Ab ATCC 19606 (strain I); [17]): 1 µg/mL (≈ 3.76 µM); MIC (Ab ATCC 19606 (strain I); Table 5, Mueller-Hinton medium, I = A. baumannii ATCC 19606, read-out: MIC strain I): 1 µg/mL (≈ 3.76 µM); MIC under conditions used to generate biofilm (Ab ATCC 19606 (strain I); trypticase soy broth (TSB) medium): 0.5 µg/mL (≈ 1.88 µM); MIC [1, 18]: 0.0625 µg/mL (≈ 0.235 µM); MIC ([1]; Table 5, Mueller-Hinton medium, J = A. baumannii BAA1605, read-out: MIC strain J): ≤ 0.125 µg/mL; MIC [2]: 0.5 µg/mL (≈ 1.88 µM); MIC [3]: 0.06 µg/mL (≈ 0.226 µM); MIC [4]: 0.5 µg/mL (≈ 1.88 µM); MIC [5]: 0.25 µg/mL (≈ 0.941 µM); MIC [6]: 0.13 µg/mL (≈ 0.489 µM); MIC [7]: 0.13 µg/mL (≈ 0.489 µM); MIC [8]: 0.125 µg/mL (≈ 0.47 µM); MIC [9]: 0.06 µg/mL (≈ 0.226 µM); MIC [10]: 0.06 µg/mL (≈ 0.226 µM); MIC [11]: 0.25 µg/mL (≈ 0.941 µM); MIC [12]: 0.13 µg/mL (≈ 0.489 µM); MIC [13]: 0.5 µg/mL (≈ 1.88 µM); MIC [14]: 0.13 µg/mL (≈ 0.489 µM); MIC [15]: 0.5 µg/mL (≈ 1.88 µM); number of compound/strain combinations with MIC value 0.25 μg/mL [16]: 16; number of compound/strain combinations with MIC value 0.5 μg/mL [16]: 10; number of compound/strain combinations with MIC value 1 μg/mL [16]: 1; number of compound/strain combinations with MIC value ≤0.125 μg/mL [16]: 16

What does the source list for `O=C(NNc1cccc(F)c1)c1cnccn1` [Compound 9a]?
MIC (Ab ATCC 19606 (strain I); [17]): 0.5 µg/mL (≈ 2.15 µM); MIC [1, 18]: 0.5 µg/mL (≈ 2.15 µM); MIC [2]: 1 µg/mL (≈ 4.31 µM); MIC [3]: 1 µg/mL (≈ 4.31 µM); MIC [4]: 0.25 µg/mL (≈ 1.08 µM); MIC [5]: 0.5 µg/mL (≈ 2.15 µM); MIC [6]: 0.5 µg/mL (≈ 2.15 µM); MIC [7]: 0.5 µg/mL (≈ 2.15 µM); MIC [8]: 1 µg/mL (≈ 4.31 µM); MIC [9]: ≤ 0.13 µg/mL; MIC [10]: ≤ 0.13 µg/mL; MIC [11]: 0.25 µg/mL (≈ 1.08 µM); MIC [12]: 0.25 µg/mL (≈ 1.08 µM); MIC [13]: 0.5 µg/mL (≈ 2.15 µM); MIC [14]: 0.25 µg/mL (≈ 1.08 µM); MIC [15]: 0.5 µg/mL (≈ 2.15 µM); number of compound/strain combinations with MIC value 0.25 μg/mL [16]: 11; number of compound/strain combinations with MIC value 0.5 μg/mL [16]: 18; number of compound/strain combinations with MIC value 1 μg/mL [16]: 10; number of compound/strain combinations with MIC value ≤0.125 μg/mL [16]: 4
